Test results as given in patent publication US9402398B2, “Herbicidal compounds” (SYNGENTA PARTICIPATIONS AG, priority 2012, dated 2016).

What was measured:
Assay type in all cases: in vivo
Solanum nigrum (SOLNI) [1] = assay: Herbicidal glasshouse test, pre-emergence; settings: pre-emergence (sprayed after cultivation for one day), 1000 g/h, evaluated after 13 days
Procedure: (§1) Seeds of a variety of test species are sown in standard soil in pots (Alopecurus myosuroides (ALOMY), Setaria faberi (SETFA), Echinochloa crus-galli (ECHCG), Solanum nigrum (SOLNI), Amaranthus retoflexus (AMARE), Ipomoea hederacea (IPOHE)). After cultivation for one day (pre-emergence) or after 8 days cultivation (post-emergence) under controlled conditions in a glasshouse (at 24/16° C., day/night; 14 hours light; 65% humidity), the plants are sprayed with an aqueous spray solution derived from the formulation of the technical active ingredient in acetone/water (50:50) solution containing 0.5% Tween 20 (polyoxyethelyene sorbitan monolaurate, CAS RN 9005-64-5). Compounds are applied at 1000 g/h. The test plants are then grown in a glasshouse under controlled conditions in a glasshouse (at 24/16° C., day/night; 14 hours light; 65% humidity) and watered twice daily. After 13 days for pre and post-emergence, the test is evaluated for the percentage damage caused to the plant. The biological activities are shown in the following table on a five point scale (5=80-100%; 4=60-79%; 3=40-59%; 2=20-39%; 1=0-19%).

[2] = test system: Amaranthus retoflexus (AMARE); assay: Herbicidal glasshouse test, pre-emergence; settings: pre-emergence (sprayed after cultivation for one day), 1000 g/h, evaluated after 13 days
Procedure: as §1

[3] = test system: Echinochloa crus-galli (ECHCG); assay: Herbicidal glasshouse test, pre-emergence; settings: pre-emergence (sprayed after cultivation for one day), 1000 g/h, evaluated after 13 days
Procedure: as §1

[4] = test system: Alopecurus myosuroides (ALOMY); assay: Herbicidal glasshouse test, pre-emergence; settings: pre-emergence (sprayed after cultivation for one day), 1000 g/h, evaluated after 13 days
Procedure: as §1

Setaria faberi (SETFA) [5] = assay: Herbicidal glasshouse test, pre-emergence; settings: pre-emergence (sprayed after cultivation for one day), 1000 g/h, evaluated after 13 days
Procedure: as §1

[6] = test system: Ipomoea hederacea (IPOHE); assay: Herbicidal glasshouse test, pre-emergence; settings: pre-emergence (sprayed after cultivation for one day), 1000 g/h, evaluated after 13 days
Procedure: as §1

Solanum nigrum (SOLNI) [7] = assay: Herbicidal glasshouse test, post-emergence; settings: post-emergence (sprayed after 8 days cultivation), 1000 g/h, evaluated after 13 days
Procedure: as §1

[8] = test system: Amaranthus retoflexus (AMARE); assay: Herbicidal glasshouse test, post-emergence; settings: post-emergence (sprayed after 8 days cultivation), 1000 g/h, evaluated after 13 days
Procedure: as §1

[9] = test system: Echinochloa crus-galli (ECHCG); assay: Herbicidal glasshouse test, post-emergence; settings: post-emergence (sprayed after 8 days cultivation), 1000 g/h, evaluated after 13 days
Procedure: as §1

[10] = test system: Alopecurus myosuroides (ALOMY); assay: Herbicidal glasshouse test, post-emergence; settings: post-emergence (sprayed after 8 days cultivation), 1000 g/h, evaluated after 13 days
Procedure: as §1

Setaria faberi (SETFA) [11] = assay: Herbicidal glasshouse test, post-emergence; settings: post-emergence (sprayed after 8 days cultivation), 1000 g/h, evaluated after 13 days
Procedure: as §1

[12] = test system: Ipomoea hederacea (IPOHE); assay: Herbicidal glasshouse test, post-emergence; settings: post-emergence (sprayed after 8 days cultivation), 1000 g/h, evaluated after 13 days
Procedure: as §1

Structure (SMILES)	percentage damage caused to the plant, five point scale, PRE Application SOLNI (Solanum nigrum (SOLNI) [1])	percentage damage caused to the plant, five point scale, PRE Application AMARE [2]	percentage damage caused to the plant, five point scale, PRE Application ECHCG [3]	percentage damage caused to the plant, five point scale, PRE Application ALOMY [4]	percentage damage caused to the plant, five point scale, PRE Application SETFA (Setaria faberi (SETFA) [5])	percentage damage caused to the plant, five point scale, PRE Application IPOHE [6]	percentage damage caused to the plant, five point scale, POST Application SOLNI (Solanum nigrum (SOLNI) [7])	percentage damage caused to the plant, five point scale, POST Application AMARE [8]	percentage damage caused to the plant, five point scale, POST Application ECHCG [9]	percentage damage caused to the plant, five point scale, POST Application ALOMY [10]	percentage damage caused to the plant, five point scale, POST Application SETFA (Setaria faberi (SETFA) [11])	percentage damage caused to the plant, five point scale, POST Application IPOHE [12]
Cc1cc(C(=O)Nc2nnnn2C)c(=O)n(-c2ccccc2C)n1 [Compound 1.003]	4 (4=60-79%)	5 (5=80-100%)	5 (5=80-100%)	2 (2=20-39%)	3 (3=40-59%)	4 (4=60-79%)	5 (5=80-100%)	5 (5=80-100%)	5 (5=80-100%)	4 (4=60-79%)	3 (3=40-59%)	5 (5=80-100%)
Cc1cc(C(=O)Nc2nnnn2C)c(=O)n(-c2ccc(C#N)cn2)n1 [Compound 1.022]	–	–	–	–	–	–	5 (5=80-100%)	5 (5=80-100%)	5 (5=80-100%)	5 (5=80-100%)	5 (5=80-100%)	4 (4=60-79%)
Cc1cc(C(=O)Nc2nnnn2C)c(=O)n(-c2ccc(F)c(F)c2)n1 [Compound 1.013]	5 (5=80-100%)	5 (5=80-100%)	5 (5=80-100%)	5 (5=80-100%)	5 (5=80-100%)	4 (4=60-79%)	5 (5=80-100%)	5 (5=80-100%)	5 (5=80-100%)	5 (5=80-100%)	5 (5=80-100%)	5 (5=80-100%)
CCOc1ccc(-n2nc(C)cc(C(=O)Nc3nnnn3C)c2=O)cc1 [Compound 1.010]	5 (5=80-100%)	5 (5=80-100%)	5 (5=80-100%)	5 (5=80-100%)	5 (5=80-100%)	4 (4=60-79%)	5 (5=80-100%)	5 (5=80-100%)	5 (5=80-100%)	5 (5=80-100%)	5 (5=80-100%)	5 (5=80-100%)
Cc1cc(C(=O)Nc2nnnn2C)c(=O)n(-c2ccccc2)n1 [Compound 1.001]	5 (5=80-100%)	5 (5=80-100%)	4 (4=60-79%)	5 (5=80-100%)	3 (3=40-59%)	3 (3=40-59%)	5 (5=80-100%)	4 (4=60-79%)	5 (5=80-100%)	5 (5=80-100%)	3 (3=40-59%)	4 (4=60-79%)
Cc1cc(C(=O)Nc2nnnn2C)c(=O)n(-c2cc(Cl)cc(Cl)c2)n1 [Compound 1.005]	5 (5=80-100%)	5 (5=80-100%)	5 (5=80-100%)	5 (5=80-100%)	5 (5=80-100%)	5 (5=80-100%)	5 (5=80-100%)	5 (5=80-100%)	5 (5=80-100%)	5 (5=80-100%)	5 (5=80-100%)	5 (5=80-100%)
Cc1cc(C(=O)Nc2nnnn2C)c(=O)n(Cc2cccc(F)c2)n1 [Compound 1.016]	5 (5=80-100%)	5 (5=80-100%)	4 (4=60-79%)	2 (2=20-39%)	5 (5=80-100%)	4 (4=60-79%)	5 (5=80-100%)	5 (5=80-100%)	4 (4=60-79%)	4 (4=60-79%)	1 (1=0-19%)	3 (3=40-59%)
Cc1cc(C(=O)Nc2nnnn2C)c(=O)n(-c2cccc(Br)c2)n1 [Compound 1.007]	5 (5=80-100%)	5 (5=80-100%)	5 (5=80-100%)	5 (5=80-100%)	5 (5=80-100%)	3 (3=40-59%)	5 (5=80-100%)	5 (5=80-100%)	5 (5=80-100%)	5 (5=80-100%)	5 (5=80-100%)	5 (5=80-100%)
COc1ccccc1-n1nc(C)cc(C(=O)Nc2nnnn2C)c1=O [Compound 1.004]	5 (5=80-100%)	5 (5=80-100%)	5 (5=80-100%)	5 (5=80-100%)	5 (5=80-100%)	4 (4=60-79%)	5 (5=80-100%)	5 (5=80-100%)	5 (5=80-100%)	5 (5=80-100%)	5 (5=80-100%)	5 (5=80-100%)
Cc1cc(C(=O)Nc2nnnn2C)c(=O)n(-c2ccc(Br)cc2)n1 [Compound 1.006]	5 (5=80-100%)	5 (5=80-100%)	5 (5=80-100%)	5 (5=80-100%)	5 (5=80-100%)	4 (4=60-79%)	5 (5=80-100%)	5 (5=80-100%)	5 (5=80-100%)	5 (5=80-100%)	5 (5=80-100%)	4 (4=60-79%)
